In patent EP1401829B1, “NOVEL HETEROCYCLIC ANTIBACTERIAL COMPOUNDS” (Microbiotix, Inc., priority 2001, dated 2002):
Converted amounts (≈) assume the structure as drawn.

Columns and labels:
B. subtilis Pol IIIC = target: T1, B. subtilis Pol IIIC (Bacillus subtilis, UniProt P13267); assay: Polymerase IIIC (Pol IIIC) assay, determination of Ki values; assay type: biochemical; conditions: Ki (µM) Pol IIIC, assay in absence of dGTP or dATP; Ki is the concentration that reduces control polymerase IIIC activity by 50 percent
T1 construct: made in house
T1 sequence (P13267 whole entry): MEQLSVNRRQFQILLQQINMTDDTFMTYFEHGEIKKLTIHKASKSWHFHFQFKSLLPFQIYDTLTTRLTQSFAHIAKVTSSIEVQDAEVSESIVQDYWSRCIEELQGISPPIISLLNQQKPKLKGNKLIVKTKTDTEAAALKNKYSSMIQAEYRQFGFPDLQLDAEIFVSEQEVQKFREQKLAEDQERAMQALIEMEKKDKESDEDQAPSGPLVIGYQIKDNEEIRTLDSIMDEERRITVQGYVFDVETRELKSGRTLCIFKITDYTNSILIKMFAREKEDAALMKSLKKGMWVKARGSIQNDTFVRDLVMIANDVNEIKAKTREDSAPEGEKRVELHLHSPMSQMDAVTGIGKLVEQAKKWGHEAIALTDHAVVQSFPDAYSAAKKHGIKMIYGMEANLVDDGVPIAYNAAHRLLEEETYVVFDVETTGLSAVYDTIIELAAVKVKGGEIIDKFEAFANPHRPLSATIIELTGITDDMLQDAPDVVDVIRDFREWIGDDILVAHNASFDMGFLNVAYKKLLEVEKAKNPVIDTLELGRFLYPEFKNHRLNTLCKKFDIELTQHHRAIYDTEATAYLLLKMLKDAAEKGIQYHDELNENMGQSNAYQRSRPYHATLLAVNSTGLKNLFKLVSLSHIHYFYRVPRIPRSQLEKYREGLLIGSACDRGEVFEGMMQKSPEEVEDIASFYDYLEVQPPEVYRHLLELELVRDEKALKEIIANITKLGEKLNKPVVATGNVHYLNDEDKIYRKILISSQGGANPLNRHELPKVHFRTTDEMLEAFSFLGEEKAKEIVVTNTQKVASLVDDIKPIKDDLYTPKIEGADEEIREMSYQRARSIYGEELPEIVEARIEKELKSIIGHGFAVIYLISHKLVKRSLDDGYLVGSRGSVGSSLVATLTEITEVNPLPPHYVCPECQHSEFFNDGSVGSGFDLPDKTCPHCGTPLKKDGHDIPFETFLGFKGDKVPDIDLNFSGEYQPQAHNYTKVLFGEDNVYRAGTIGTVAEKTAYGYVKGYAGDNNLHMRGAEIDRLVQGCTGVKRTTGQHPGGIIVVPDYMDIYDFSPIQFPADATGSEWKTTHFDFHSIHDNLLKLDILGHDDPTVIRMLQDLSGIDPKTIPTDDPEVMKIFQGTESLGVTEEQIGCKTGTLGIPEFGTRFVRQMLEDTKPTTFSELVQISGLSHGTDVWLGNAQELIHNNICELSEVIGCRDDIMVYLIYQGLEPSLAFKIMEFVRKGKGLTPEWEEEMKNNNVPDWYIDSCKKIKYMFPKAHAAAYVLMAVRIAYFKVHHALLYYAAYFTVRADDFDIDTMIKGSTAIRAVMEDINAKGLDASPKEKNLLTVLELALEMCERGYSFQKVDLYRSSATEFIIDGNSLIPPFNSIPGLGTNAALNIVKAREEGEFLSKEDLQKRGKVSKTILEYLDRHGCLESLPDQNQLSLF
Procedure: (§1) The following methods were used to characterize representative compounds. Minimal Inhibitory Concentration (MIC) determinations. MIC values were determined in 96 well plates, with bacterial growth monitored at OD 600 nm in 200µl following an initial bacterial seeding at approximately 1x10^5 colony forming units (CFU)/ml. Each drug is evaluated at five concentrations, with five data points at each dilution. MIC values (µg/ml) were determined against actively growing cultures in Heart-Brain Infusion (HBI) medium. Cell growth in cultures supplemented with a test compound was calculated as a percent of control at OD 600 nm after 16 to 18 hours at 37°C. […] Polymerase IIIC (Pol IIIC) assay. DNA polymerase activity (or inhibition thereof) was measured in a 96-well plate format. B. subtilis Pol IIIC was isolated as described by Hammond and Brown (Protein Expr. Purif., 3: 65-70 (1992)). Each 25 µl assay contained 30 mM Tris, pH 7.5, 10 mM magnesium acetate, 4 mM dithiothreitol, 20% glycerol, with 25 µM dATP, dCTP, dGTP and 10 µM dTTP (^3H-labelled at 1.44 Ci/mmole) and 0.4 mg/ml activated calf thymus DNA as substrates, as described previously (see Barnes et al, op. cit). Assays were initiated by the addition of 0.025 to 0.06 units of enzyme 1 unit is the amount required to incorporate 250 pmoles of [^3H] dTMP in a standard assay), incubated for 10 minutes at 30°C and terminated by the addition of 200 µl of cold 10% trichloroacetic acid (TCA),10 mM sodium pyrophosphate. Precipitated labeled DNA was collected on glass fiber filter plates, washed, dried, and counted in a liquid scintillation counter. Determination of Ki values. DNA polymerase activity was measured in a 96-well plate format in the absence of dGTP or dATP, depending on the structure of the test compound. Each 25 µl assay contained 30 mM Tris, pH 7.5, 10 mM magnesium acetate, 4 mM dithiothreitol, 20% glycerol, with 25 µM dATP, dCTP, and 10 µM dTTP (^3H-labelled at 1.44 Ci/mmole) and 0.4 mg/ml activated calf thymus DNA as substrates, as described previously. […] Assays were initiated by the addition of 0.025 to 0.06 units of enzyme (1 unit is the amount required to incorporate 250 pmoles of [^3H] dTMP in a standard assay), incubated for 10 minutes at 30 °C and terminated by the addition of 200 µl of cold 10% trichloroacetic acid, 10 mM sodium pyrophosphate. Precipitated labeled DNA was collected on glass fiber filter plates, washed, dried, and counted in a liquid scintillation counter. Ki is the concentration of test compound that reduces the control polymerase IIIC activity by 50 percent.

B. subtilis = assay: Minimal Inhibitory Concentration (MIC) determination, 96 well plates; assay type: cell-based, Bacillus subtilis; conditions: Bacillus subtilis; HBI medium, 16 to 18 hours at 37°C; read-out: MIC (µg/ml) B. subtilis
Procedure: as §1
(§2) MIC values were determined for the Gram positive bacteria Bacillus subtilis, Staphylococcus aureus (two strains), Enterococcus fecalis, Enterococcus fecium, and for the Gram negative bacterium Escherichia coli.

S. aureus = assay: as above; assay type: cell-based, Staphylococcus aureus; conditions: Staphylococcus aureus; HBI medium, 16 to 18 hours at 37°C; read-out: MIC (µg/ml) S. aureus
Procedure: (§3) The following methods were used to characterize representative compounds. Minimal Inhibitory Concentration (MIC) determinations. MIC values were determined in 96 well plates, with bacterial growth monitored at OD 600 nm in 200µl following an initial bacterial seeding at approximately 1x10^5 colony forming units (CFU)/ml. Each drug is evaluated at five concentrations, with five data points at each dilution. MIC values (µg/ml) were determined against actively growing cultures in Heart-Brain Infusion (HBI) medium. Cell growth in cultures supplemented with a test compound was calculated as a percent of control at OD 600 nm after 16 to 18 hours at 37°C. This plate format conserves test compound and provides precise, quantitative data with low standard deviation determinations. Polymerase IIIC (Pol IIIC) assay. DNA polymerase activity (or inhibition thereof) was measured in a 96-well plate format. B. subtilis Pol IIIC was isolated as described by Hammond and Brown (Protein Expr. Purif., 3: 65-70 (1992)). Each 25 µl assay contained 30 mM Tris, pH 7.5, 10 mM magnesium acetate, 4 mM dithiothreitol, 20% glycerol, with 25 µM dATP, dCTP, dGTP and 10 µM dTTP (^3H-labelled at 1.44 Ci/mmole) and 0.4 mg/ml activated calf thymus DNA as substrates, as described previously (see Barnes et al, op. cit). Assays were initiated by the addition of 0.025 to 0.06 units of enzyme 1 unit is the amount required to incorporate 250 pmoles of [^3H] dTMP in a standard assay), incubated for 10 minutes at 30°C and terminated by the addition of 200 µl of cold 10% trichloroacetic acid (TCA),10 mM sodium pyrophosphate. Precipitated labeled DNA was collected on glass fiber filter plates, washed, dried, and counted in a liquid scintillation counter. Determination of Ki values. DNA polymerase activity was measured in a 96-well plate format in the absence of dGTP or dATP, depending on the structure of the test compound. Each 25 µl assay contained 30 mM Tris, pH 7.5, 10 mM magnesium acetate, 4 mM dithiothreitol, 20% glycerol, with 25 µM dATP, dCTP, and 10 µM dTTP (^3H-labelled at 1.44 Ci/mmole) and 0.4 mg/ml activated calf thymus DNA as substrates, as described previously. To each well were added 2 µl of compound solution to give final concentrations ranging from 20 - 0.027 µg/ml in the assay. Assays were initiated by the addition of 0.025 to 0.06 units of enzyme (1 unit is the amount required to incorporate 250 pmoles of [^3H] dTMP in a standard assay), incubated for 10 minutes at 30 °C and terminated by the addition of 200 µl of cold 10% trichloroacetic acid, 10 mM sodium pyrophosphate. Precipitated labeled DNA was collected on glass fiber filter plates, washed, dried, and counted in a liquid scintillation counter. Ki is the concentration of test compound that reduces the control polymerase IIIC activity by 50 percent.
as §2

S.aureus (Smith) = assay: as above; assay type: cell-based, Staphylococcus aureus; conditions: Staphylococcus aureus; HBI medium, 16 to 18 hours at 37°C; read-out: MIC (µg/ml) S.aureus (Smith)
Procedure: as §1, §2

E. fecalis = assay: as above; assay type: cell-based, Enterococcus fecalis; conditions: Enterococcus; HBI medium, 16 to 18 hours at 37°C; read-out: MIC (µg/ml) E. fecalis
Procedure: as §1, §2

E. fecium = assay: as above; assay type: cell-based, Enterococcus fecium; conditions: Enterococcus; HBI medium, 16 to 18 hours at 37°C; read-out: MIC (µg/ml) E. fecium
Procedure: as §1, §2

E. coli = assay: as above; assay type: cell-based, Escherichia coli; conditions: Escherichia coli; HBI medium, 16 to 18 hours at 37°C; read-out: MIC (µg/ml) E. coli
Procedure: as §3, §2

SMILES | Ki (B. subtilis Pol IIIC) [µM] | MIC (B. subtilis) [µg/mL] | MIC (S. aureus) [µg/mL] | MIC (S.aureus (Smith)) [µg/mL] | MIC (E. fecalis) [µg/mL] | MIC (E. fecium) [µg/mL] | MIC (E. coli) [µg/mL]
CCc1cc(Nc2cc(=O)n(CCCCCCCN3CCN(c4cc5c(cc4F)c(=O)c(C(=O)O)cn5C4CC4)CC3)c(=O)[nH]2)ccc1C [Compound 8, 3-{7-[1-(1-cyclopropyl-3-carboxy-4-oxo-6-fluoro-7-quinolyl)-4-piperazinyl]heptyl}-6-(3-ethyl-4-methylanilino)uracil] | 0.013 | 0.313 (≈ 0.465 µM) | 1.25 (≈ 1.86 µM) | 0.625 (≈ 0.929 µM) | 10 (≈ 14.9 µM) | > 80 | 40 (≈ 59.5 µM)
Cc1ccc(Nc2cc(=O)n(CCCCN3CCN(c4c(F)cc5c(=O)c(C(=O)O)cn(C6CC6)c5c4F)C[C@H]3C)c(=O)[nH]2)cc1C [Compound 98, (R)-3-{4-[1-(1-cyclopropyl-3-carboxy-4-oxo-6,8-difluoro-7-quinolyl)-3-methyl-4-piperazinyl]butyl}-6-(3,4-dimethylanilino)uracil] | 0.029 | 0.313 (≈ 0.482 µM) | 1.25 (≈ 1.93 µM) | 0.625 (≈ 0.963 µM) | 1.25 (≈ 1.93 µM) | 1.25 (≈ 1.93 µM) | 5 (≈ 7.71 µM)
Cc1ccc(Nc2cc(=O)n(CCCCN3CCN(c4cc5c(cc4F)c(=O)c(C(=O)O)cn5C4CC4)CC3)c(=O)[nH]2)cc1C [Compound 65, 3-{4-[1-(1-cyclopropyl-3-carboxy-4-oxo-6-fluoro-7-quinolyl)-4-piperazinyl]butyl}-6-(3,4-dimethylanilino)uracil] | 0.095 | 0.23 (≈ 0.373 µM) | 0.95 (≈ 1.54 µM) | 0.46 (≈ 0.746 µM) | 1.87 (≈ 3.03 µM) | 1.87 (≈ 3.03 µM) | 10 (≈ 16.2 µM)
CCc1cc(Nc2cc(=O)n(CCCCN3CCN(c4c(F)cc5c(=O)c(C(=O)O)cn(C6CC6)c5c4F)CC3CO)c(=O)[nH]2)ccc1C (stereo not shown) [Compound 91, 3-{4-[1-(1-cyclopropyl-3-carboxy-4-oxo-6,8-difluoro-7-quinolyl)-3-hydroxymethyl-4-piperazinyl]butyl}-6-(3-ethyl-4-methylanilino)uracil] | 0.011 | 0.235 (≈ 0.346 µM) | 1.25 (≈ 1.84 µM) | 0.625 (≈ 0.921 µM) | 2.5 (≈ 3.68 µM) | 2.5 (≈ 3.68 µM) | > 80
CCc1cc(Nc2cc(=O)n(CCCCCN3CCC4CN(c5cc6c(cc5F)c(=O)c(C(=O)O)cn6C5CC5)CC43)c(=O)[nH]2)ccc1C (stereo not shown) [Compound 81, 3-{5-[1-(1-cyclopropyl-3-carboxy-4-oxo-6-fluoro-7-quinolyl)-3-(1,3-diazabicyclooctyl)]pentyl}-6-(3-ethyl-4-methylanilino)uracil] | 0.04 | 1.25 (≈ 1.86 µM) | 5 (≈ 7.45 µM) | 2.5 (≈ 3.73 µM) | 3.7 (≈ 5.52 µM) | 12.5 (≈ 18.6 µM) | > 80
Cc1ccc(Nc2cc(=O)n(CCCCN3CCN(c4c(F)cc5c(=O)c(C(=O)O)cn(C6CC6)c5c4F)C[C@@H]3C)c(=O)[nH]2)cc1C [Compound 99, (S)-3-{4-[1-(1-cyclopropyl-3-carboxy-4-oxo-6,8-difluoro-7-quinolyl)-3-methyl-4-piperazinyl]butyl}-6-(3,4-dimethylanilino)uracil] | 0.03 | 0.156 (≈ 0.24 µM) | 0.313 (≈ 0.482 µM) | 0.156 (≈ 0.24 µM) | 0.625 (≈ 0.963 µM) | 1.25 (≈ 1.93 µM) | 0.625 (≈ 0.963 µM)
O=C(O)c1cn(C2CC2)c2cc(N3CCN(CCCCn4c(=O)cc(NCc5ccc(Cl)c(Cl)c5)[nH]c4=O)CC3)c(F)cc2c1=O [Compound 68, 3-{4-[1-(1-cyclopropyl-3-carboxy-4-oxo-6-fluoro-7-quinolyl)-4-piperazinyl]butyl}-6-(3,4-dichlorobenzylamino)uracil] | 0.047 | 0.95 (≈ 1.41 µM) | 1.25 (≈ 1.86 µM) | 0.625 (≈ 0.931 µM) | 40 (≈ 59.6 µM) | 1.25 (≈ 1.86 µM) | 12.5 (≈ 18.6 µM)
CCc1cc(Nc2cc(=O)n(CCCCN3CCN(c4cc5c(cc4F)c(=O)c(C(=O)O)cn5C4CC4)C[C@@H]3C)c(=O)[nH]2)ccc1C [Compound 100, (S)-3-{4-[1-(1-cyclopropyl-3-carboxy-4-oxo-6-fluoro-7-quinolyl)-3-methyl-4-piperazinyl]butyl}-6-(3-ethyl-4-methylanilino)uracil] | 0.011 | 0.156 (≈ 0.242 µM) | 0.937 (≈ 1.45 µM) | 0.625 (≈ 0.969 µM) | 0.475 (≈ 0.737 µM) | 0.937 (≈ 1.45 µM) | 50 (≈ 77.5 µM)
CCc1cccc(Nc2cc(=O)n(CCCCN3CCN(c4cc5c(cc4F)c(=O)c(C(=O)O)cn5C4CC4)CC3)c(=O)[nH]2)c1 [Compound 66, 3-{4-[1-(1-cyclopropyl-3-carboxy-4-oxo-6-fluoro-7-quinolyl)-4-piperazinyl]butyl}-6-(3-ethylanilino)uracil] | 0.26 | 0.313 (≈ 0.508 µM) | 0.95 (≈ 1.54 µM) | 0.625 (≈ 1.01 µM) | 1.25 (≈ 2.03 µM) | 3.7 (≈ 6 µM) | 6.1 (≈ 9.89 µM)
Cc1ccc(Nc2cc(=O)n(CCCCN3CCN(c4cc5c(cc4F)c(=O)c(C(=O)O)cn5C4CC4)CC3)c(=O)[nH]2)cc1Cl [Compound 64, 3-{4-[1-(1-cyclopropyl-3-carboxy-4-oxo-6-fluoro-7-quinolyl)-4-piperazinyl]butyl}-6-(3-chloro-4-methylanilino)uracil] | 0.055 | 0.313 (≈ 0.491 µM) | 1.25 (≈ 1.96 µM) | 0.625 (≈ 0.981 µM) | 1.87 (≈ 2.94 µM) | 3.7 (≈ 5.81 µM) | 7.5 (≈ 11.8 µM)
